The data set in a line: Storage stability under drastic conditions. Particulars: 60° C. and 5 bar pressure. Format: physicochemical. How it is done: Example 15: Stability Studies
Mesaconic acid diethyl ester (MSDEE) was stored alone and as a component of various formulations for 24 and 72 hours respectively under drastic conditions at 60° C. and 5 bar pressure. The remaining amount of active substance was then determined.

On to `CCOC(=O)/C=C(\C)C(=O)OCC` [Mesaconic acid diethyl ester, (E)-2-methyl-but-2-endicarboxylic acid diethyl ester], for which the “Storage stability: remaining amount of active substance (MSDEE) After 24 h” value (24 h) was determined as 98%. Also, the “Storage stability: remaining amount of active substance (MSDEE) After 72 h” value (72 h) was 98%.

Source of the values: US10988434B2, “Fragrance mixture” (SYMRISE AG, priority 2016, dated 2021).
